Source: patent US12447153B2, “HER2 mutation inhibitors” (Array BioPharma Inc., priority 2021, dated 2025)

Key:
EGFR = EGFR (Homo sapiens (Human), UniProt P00533); experiment: ErbB Enzyme Assay (HTRF KinEASE-TK), Assay 3; assay type: biochemical; conditions: EGFR enzyme
ErbB2 WT = ErbB2 WT (Homo sapiens (Human), UniProt P04626); experiment: ErbB Enzyme Assay (HTRF KinEASE-TK), Assay 2; assay type: biochemical; conditions: ErbB2 WT enzyme
[1] = molecular target: ErbB2 with Exon 20 YVMA insertion (HER2-YVMA) (Homo sapiens (Human), UniProt P04626, INS775YVMA); experiment: Cellular Phosphorylation Assay, Assay 4 (constitutive ErbB2 phosphorylation, NIH 3T3 cells); assay type: cell-based; conditions: ErbB2 YVMA phosphorylation
Chain of ErbB2 with Exon 20 YVMA insertion (HER2-YVMA) (P04626 other isoform, or with tags, fused parts or gaps ins YVMA behind 775): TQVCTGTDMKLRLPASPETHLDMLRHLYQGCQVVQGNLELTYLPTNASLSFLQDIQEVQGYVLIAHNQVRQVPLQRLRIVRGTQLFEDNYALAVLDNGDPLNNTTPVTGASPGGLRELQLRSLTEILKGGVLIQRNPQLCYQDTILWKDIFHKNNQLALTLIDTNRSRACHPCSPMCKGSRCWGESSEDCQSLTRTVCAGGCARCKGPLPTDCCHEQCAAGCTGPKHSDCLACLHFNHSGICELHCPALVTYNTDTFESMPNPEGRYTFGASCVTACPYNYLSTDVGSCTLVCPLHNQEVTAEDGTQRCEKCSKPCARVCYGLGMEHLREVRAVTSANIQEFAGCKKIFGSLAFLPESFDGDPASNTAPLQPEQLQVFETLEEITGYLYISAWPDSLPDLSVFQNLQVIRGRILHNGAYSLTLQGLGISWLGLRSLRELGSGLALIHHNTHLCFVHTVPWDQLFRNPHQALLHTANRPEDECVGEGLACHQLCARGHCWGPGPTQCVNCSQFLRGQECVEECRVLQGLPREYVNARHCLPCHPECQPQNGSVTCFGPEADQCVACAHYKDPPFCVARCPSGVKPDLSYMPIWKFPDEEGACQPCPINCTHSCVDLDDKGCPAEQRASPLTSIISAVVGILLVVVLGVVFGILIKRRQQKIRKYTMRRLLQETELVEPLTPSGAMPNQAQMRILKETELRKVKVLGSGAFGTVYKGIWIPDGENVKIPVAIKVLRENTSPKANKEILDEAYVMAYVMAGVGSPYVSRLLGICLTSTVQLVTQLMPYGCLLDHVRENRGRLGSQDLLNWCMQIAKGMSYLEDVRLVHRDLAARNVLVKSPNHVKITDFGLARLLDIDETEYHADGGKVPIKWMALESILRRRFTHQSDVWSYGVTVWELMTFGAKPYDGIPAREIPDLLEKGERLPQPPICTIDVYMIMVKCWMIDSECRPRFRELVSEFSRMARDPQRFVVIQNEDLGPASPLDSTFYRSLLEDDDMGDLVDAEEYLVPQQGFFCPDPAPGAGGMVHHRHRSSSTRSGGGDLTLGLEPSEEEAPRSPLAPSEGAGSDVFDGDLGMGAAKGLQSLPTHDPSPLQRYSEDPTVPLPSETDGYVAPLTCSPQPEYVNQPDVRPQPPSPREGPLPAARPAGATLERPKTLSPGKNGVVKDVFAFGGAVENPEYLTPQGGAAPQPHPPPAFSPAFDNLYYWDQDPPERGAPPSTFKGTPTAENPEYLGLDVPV

EGFR wild type (EGFR WT) = EGFR wild type (EGFR WT) (Homo sapiens (Human), UniProt P00533); experiment: Cellular Phosphorylation Assay, Assay 5 (EGF-stimulated EGFR phosphorylation, NIH 3T3 cells); assay type: cell-based; conditions: EGF-stimulated EGFR WT phosphorylation
Chain of EGFR wild type (EGFR WT) (P00533 25-1210): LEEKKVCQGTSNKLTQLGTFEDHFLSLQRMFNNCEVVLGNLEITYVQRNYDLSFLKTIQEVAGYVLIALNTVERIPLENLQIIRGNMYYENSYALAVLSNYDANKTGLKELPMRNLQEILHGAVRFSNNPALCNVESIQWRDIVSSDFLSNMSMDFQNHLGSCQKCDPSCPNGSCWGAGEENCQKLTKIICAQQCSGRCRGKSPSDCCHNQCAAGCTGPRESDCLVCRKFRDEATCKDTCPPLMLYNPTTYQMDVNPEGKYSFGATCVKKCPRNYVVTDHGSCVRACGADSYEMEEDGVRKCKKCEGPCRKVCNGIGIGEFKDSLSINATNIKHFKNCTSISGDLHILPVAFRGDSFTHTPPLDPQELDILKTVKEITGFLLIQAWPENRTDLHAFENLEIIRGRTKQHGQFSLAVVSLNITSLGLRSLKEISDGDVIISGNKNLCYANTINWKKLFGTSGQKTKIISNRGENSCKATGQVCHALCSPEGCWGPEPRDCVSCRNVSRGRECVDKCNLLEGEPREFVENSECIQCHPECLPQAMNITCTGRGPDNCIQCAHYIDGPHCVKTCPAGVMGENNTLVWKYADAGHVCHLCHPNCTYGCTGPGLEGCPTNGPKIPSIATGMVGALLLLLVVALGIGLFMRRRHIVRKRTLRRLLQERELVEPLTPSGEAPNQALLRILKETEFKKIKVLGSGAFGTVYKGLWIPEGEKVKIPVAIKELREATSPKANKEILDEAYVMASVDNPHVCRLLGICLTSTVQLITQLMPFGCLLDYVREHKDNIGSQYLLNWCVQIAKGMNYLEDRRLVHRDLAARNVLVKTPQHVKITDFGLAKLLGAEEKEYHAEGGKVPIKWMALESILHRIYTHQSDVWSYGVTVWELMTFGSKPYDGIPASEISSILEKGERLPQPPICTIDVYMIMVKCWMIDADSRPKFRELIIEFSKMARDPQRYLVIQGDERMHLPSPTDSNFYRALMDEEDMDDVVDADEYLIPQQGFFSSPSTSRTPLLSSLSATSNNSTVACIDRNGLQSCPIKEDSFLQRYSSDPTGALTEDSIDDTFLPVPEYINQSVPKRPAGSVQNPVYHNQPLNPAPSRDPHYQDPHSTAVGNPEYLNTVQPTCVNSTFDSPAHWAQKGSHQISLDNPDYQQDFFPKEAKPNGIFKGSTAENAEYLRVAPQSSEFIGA

Chain of EGFR (P00533 25-1210): as above
Chain of ErbB2 WT (P04626 23-1255): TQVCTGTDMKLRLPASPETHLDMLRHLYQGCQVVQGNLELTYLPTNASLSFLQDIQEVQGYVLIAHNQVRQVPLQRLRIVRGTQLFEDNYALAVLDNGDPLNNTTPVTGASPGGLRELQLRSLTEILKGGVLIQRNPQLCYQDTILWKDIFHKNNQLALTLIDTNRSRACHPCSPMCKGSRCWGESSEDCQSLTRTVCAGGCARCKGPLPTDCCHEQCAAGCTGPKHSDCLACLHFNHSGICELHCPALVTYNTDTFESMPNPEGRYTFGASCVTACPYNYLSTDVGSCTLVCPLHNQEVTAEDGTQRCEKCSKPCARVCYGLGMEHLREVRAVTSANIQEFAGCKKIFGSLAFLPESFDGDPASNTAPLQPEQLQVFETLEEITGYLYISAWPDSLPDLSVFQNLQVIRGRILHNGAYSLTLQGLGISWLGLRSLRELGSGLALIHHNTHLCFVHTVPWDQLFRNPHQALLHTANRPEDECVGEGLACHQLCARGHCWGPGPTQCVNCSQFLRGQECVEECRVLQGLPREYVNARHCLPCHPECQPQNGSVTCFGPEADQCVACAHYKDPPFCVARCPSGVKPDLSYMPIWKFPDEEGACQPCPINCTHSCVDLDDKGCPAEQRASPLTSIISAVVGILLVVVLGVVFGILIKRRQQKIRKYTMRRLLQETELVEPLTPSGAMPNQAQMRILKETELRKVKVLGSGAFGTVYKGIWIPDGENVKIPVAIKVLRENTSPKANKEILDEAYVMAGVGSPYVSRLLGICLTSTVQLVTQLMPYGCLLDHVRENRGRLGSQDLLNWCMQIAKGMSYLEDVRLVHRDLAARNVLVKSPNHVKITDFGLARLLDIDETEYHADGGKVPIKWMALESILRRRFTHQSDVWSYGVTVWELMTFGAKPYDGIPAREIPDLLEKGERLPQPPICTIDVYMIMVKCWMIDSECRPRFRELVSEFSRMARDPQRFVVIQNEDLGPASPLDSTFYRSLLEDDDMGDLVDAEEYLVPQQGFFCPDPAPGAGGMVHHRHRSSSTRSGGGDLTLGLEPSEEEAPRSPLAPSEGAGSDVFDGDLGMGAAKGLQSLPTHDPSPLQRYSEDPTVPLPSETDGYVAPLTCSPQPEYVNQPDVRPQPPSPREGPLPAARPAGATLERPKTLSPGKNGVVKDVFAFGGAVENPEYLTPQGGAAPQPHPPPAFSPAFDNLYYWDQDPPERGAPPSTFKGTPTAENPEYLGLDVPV

SMILES | IC50 (EGFR) [nM] | IC50 (ErbB2 WT) [nM] | IC50 [1] [nM] | IC50 (EGFR wild type (EGFR WT)) [nM]
C=CC(=O)N1C[C@@H]2C[C@H]1CN(c1ccc3ncnc(Nc4cc(C)c(Oc5ccc6c(c5)ncn6C)cc4F)c3n1)C2 [Example 102, 1-((1R,5S)-3-(4-((2-fluoro-5-methyl-4-((1-methyl-1H-benzo[d]imidazol-5-yl)oxy)phenyl)amino)pyrido[3,2-d]pyrimidin-6-yl)-3,6-diazabicyclo[3.2.1]octan-6-yl)prop-2-en-1-one] | ≥ 10000 | 461 | 15.4 | ≥ 5000
C=CC(=O)N1[C@H](C)CN(c2ccc3ncnc(Nc4ccc(Oc5ccc6c(c5)ncn6C)c(C)c4F)c3n2)C[C@@H]1C [Example 115, 1-((2S,6R)-4-(4-((2-fluoro-3-methyl-4-((1-methyl-1H-benzo[d]imidazol-5-yl)oxy)phenyl)amino)pyrido[3,2-d]pyrimidin-6-yl)-2,6-dimethylpiperazin-1-yl)prop-2-en-1-one] | ≥ 10000 | 55.4 | 82.8 | ≥ 5000
C=CC(=O)N1C[C@H]2C[C@@H]1CN(c1ccc3ncnc(Nc4cc(C)c(Oc5ccc6c(c5)ncn6C)cc4F)c3n1)C2 [Example 119, 1-((1S,5R)-3-(4-((2-fluoro-5-methyl-4-((1-methyl-1H-benzo[d]imidazol-5-yl)oxy)phenyl)amino)pyrido[3,2-d]pyrimidin-6-yl)-3,6-diazabicyclo[3.2.1]octan-6-yl)prop-2-en-1-one] | ≥ 10000 | 60.4 | 9.4 | ≥ 5000
C=CC(=O)N1C2CCC1CC(c1ccc3ncnc(Nc4ccc(Oc5ccc6c(c5)ncn6C)c(C)c4)c3n1)C2 (stereo not drawn) [Example 122, 1-(3-(4-((3-methyl-4-((1-methyl-1H-benzo[d]imidazol-5-yl)oxy)phenyl)amino)pyrido[3,2-d]pyrimidin-6-yl)-8-azabicyclo[3.2.1]octan-8-yl)prop-2-en-1-one] | 3880 | 9.3 | 13 | ≥ 5000
C=CC(=O)N1CCC(c2ccc3ncnc(Nc4ccc(Oc5ccc6c(c5)ncn6C)c(C)c4)c3n2)C(C)C1 (stereo not drawn) [Example 125, 1-((3RS,4R*)3-methyl-4-(4-((3-methyl-4-((1-methyl-1H-benzo[d]imidazol-5-yl)oxy)phenyl)amino)pyrido[3,2-d]pyrimidin-6-yl)piperidin-1-yl)prop-2-en-1-one] | 7480 | 48.2 | 40 | ≥ 5000
C=CC(=O)N1CCCCC(c2ccc3ncnc(Nc4ccc(Oc5ccc6c(c5)ncn6C)c(C)c4)c3n2)C1 (stereo not drawn) [Example 126, 1-(3-(4-((3-methyl-4-((1-methyl-1H-benzo[d]imidazol-5-yl)oxy)phenyl)amino)pyrido[3,2-d]pyrimidin-6-yl)azepan-1-yl)prop-2-en-1-one] | 1260 | 12.3 | 12.2 | 1770
C=CC(=O)N1CCN(c2nc3c(Nc4ccc(Oc5ccn6ncnc6c5)c(Cl)c4F)ncnc3cc2OC)CC1 [Example 148, 1-(4-(4-((4-([1,2,4]triazolo[1,5-a]pyridin-7-yloxy)-3-chloro-2-fluorophenyl)amino)-7-methoxypyrido[3,2-d]pyrimidin-6-yl)piperazin-1-yl)prop-2-en-1-one] | 16.1 | 0.6 | 4.4 | 69
C=CC(=O)N1CCN(c2nc3c(Nc4ccc(Oc5ccn6ncnc6c5)c(C)c4F)ncnc3cc2Cl)C[C@@H]1C [Example 149, (S)-1-(4-(4-((4-([1,2,4]triazolo[1,5-a]pyridin-7-yloxy)-2-fluoro-3-methylphenyl)amino)-7-chloropyrido[3,2-d]pyrimidin-6-yl)-2-methylpiperazin-1-yl)prop-2-en-1-one] | 6700 | 323 | 192 | ≥ 5000
C=CC(=O)N1CCCN(c2nc3c(Nc4ccc(Oc5ccn6ncnc6c5)c(C)c4F)ncnc3cc2OC)CC1 [Example 150, 1-(4-(4-((4-([1,2,4]triazolo[1,5-a]pyridin-7-yloxy)-2-fluoro-3-methylphenyl)amino)-7-methoxypyrido[3,2-d]pyrimidin-6-yl)-1,4-diazepan-1-yl)prop-2-en-1-one] | 1550 | 16.6 | 47 | ≥ 5000
C=CC(=O)N1CCC(Oc2nc3c(Nc4ccc(Oc5ccc6cn(C)nc6c5)c(C)c4F)ncnc3cc2OC)CC1 [Example 151, 1-(4-((4-((2-fluoro-3-methyl-4-((2-methyl-2H-indazol-6-yl)oxy)phenyl)amino)-7-methoxypyrido[3,2-d]pyrimidin-6-yl)oxy)piperidin-1-yl)prop-2-en-1-one] | 126 | 41.6 | 28.1 | 548
C=CC(=O)N1CCCN(c2nc3c(Nc4ccc(Oc5ccn6ncnc6c5)c(Cl)c4F)ncnc3cc2OC)CC1 [Example 153, 1-(4-(4-((4-([1,2,4]triazolo[1,5-a]pyridin-7-yloxy)-3-chloro-2-fluorophenyl)amino)-7-methoxypyrido[3,2-d]pyrimidin-6-yl)-1,4-diazepan-1-yl)prop-2-en-1-one] | 265 | 4 | 38.3 | 1790
C=CC(=O)N1CC[C@@H]2CN(c3nc4c(Nc5ccc(Oc6ccn7ncnc7c6)c(C)c5F)ncnc4cc3OC)C[C@@H]21 [Example 154, 1-((3aR,6aR)-5-(4-((4-([1,2,4]triazolo[1,5-a]pyridin-7-yloxy)-2-fluoro-3-methylphenyl)amino)-7-methoxypyrido[3,2-d]pyrimidin-6-yl)hexahydropyrrolo[3,4-d]pyrrol-1(2H)-yl)prop-2-en-1-one] | 447 | 18 | 67.8 | 3070
C=CC(=O)N1CCC(c2nc3c(Nc4ccc(Oc5ccn6ncnc6c5)c(C)c4F)ncnc3cc2OC)CC1 [Example 155, 1-(4-(4-((4-([1,2,4]triazolo[1,5-a]pyridin-7-yloxy)-2-fluoro-3-methylphenyl)amino)-7-methoxypyrido[3,2-d]pyrimidin-6-yl)piperidin-1-yl)prop-2-en-1-one] | ≥ 10000 | 9720 | 3950 | ≥ 5000
C=CC(=O)N1CCC(Oc2nc3c(Nc4ccc(Oc5ccc6cn(C)nc6c5)c(Cl)c4F)ncnc3cc2OC)CC1 [Example 156, 1-(4-((4-((3-chloro-2-fluoro-4-((2-methyl-2H-indazol-6-yl)oxy)phenyl)amino)-7-methoxypyrido[3,2-d]pyrimidin-6-yl)oxy)piperidin-1-yl)prop-2-en-1-one] | 110 | 20.3 | 19.6 | 215
C=CC(=O)N1CCN(c2nc3c(Nc4ccc(Oc5ccc6cn(C)nc6c5)c(C)c4)ncnc3cc2OC)CC1 [Example 158, 1-(4-(7-methoxy-4-((3-methyl-4-((2-methyl-2H-indazol-6-yl)oxy)phenyl)amino)pyrido[3,2-d]pyrimidin-6-yl)piperazin-1-yl)prop-2-en-1-one] | 321 | 39.1 | 16.5 | 366
C=CC(=O)N1CCN(c2nc3c(Nc4ccc(Oc5ccn6ncnc6c5)c(C)c4F)ncnc3cc2Cl)CC1(C)C [Example 160, 1-(4-(4-((4-([1,2,4]triazolo[1,5-a]pyridin-7-yloxy)-2-fluoro-3-methylphenyl)amino)-7-chloropyrido[3,2-d]pyrimidin-6-yl)-2,2-dimethylpiperazin-1-yl)prop-2-en-1-one] | ≥ 10000 | 515 | 165 | ≥ 5000
C=CC(=O)N1CCN(c2ccc3ncnc(Nc4ccc(Oc5ccc6c(c5)ncn6C)c(C)c4F)c3n2)C[C@@H]1C1CC1 [Example 162, (S)-1-(2-cyclopropyl-4-(4-((2-fluoro-3-methyl-4-((1-methyl-1H-benzo[d]imidazol-5-yl)oxy)phenyl)amino)pyrido[3,2-d]pyrimidin-6-yl)piperazin-1-yl)prop-2-en-1-one] | ≥ 10000 | 342 | 25.7 | ≥ 5000
C=CC(=O)N1[C@H](C)C[C@@H](c2ccc3ncnc(Nc4ccc(Oc5ccc6c(c5)ncn6C)c(C)c4F)c3n2)C[C@@H]1C [Example 166, 1-((2R,4SR,6S)-4-(4-((2-fluoro-3-methyl-4-((1-methyl-1H-benzo[d]imidazol-5-yl)oxy)phenyl)amino)pyrido[3,2-d]pyrimidin-6-yl)-2,6-dimethylpiperidin-1-yl)prop-2-en-1-one] | ≥ 10000 | 64.2 | 64.6 | ≥ 5000
C=CC(=O)N1C[C@@H](c2ccc3ncnc(Nc4cc(C)c(Oc5ccc6c(c5)ncn6C)cc4F)c3n2)CC[C@H]1C [Example 170, 1-((2R,5S)-5-(4-((2-fluoro-5-methyl-4-((1-methyl-1H-benzo[d]imidazol-5-yl)oxy)phenyl)amino)pyrido[3,2-d]pyrimidin-6-yl)-2-methylpiperidin-1-yl)prop-2-en-1-one] | ≥ 10000 | 261 | 44.9 | ≥ 5000
CC#CC(=O)N1CCN(c2ccc3ncnc(Nc4ccc(Oc5ccn6ncnc6c5)c(Cl)c4F)c3n2)C[C@H]1C [Example 178, (R)-1-(4-(4-((4-([1,2,4]triazolo[1,5-a]pyridin-7-yloxy)-3-chloro-2-fluorophenyl)amino)pyrido[3,2-d]pyrimidin-6-yl)-2-methylpiperazin-1-yl)but-2-yn-1-one] | 443 | 8 | 27.7 | 437
CC#CC(=O)N1CCN(c2ccc3ncnc(Nc4ccc(Oc5ccn6ncnc6c5)c(C)c4F)c3n2)CC1(C)C [Example 179, 1-(4-(4-((4-([1,2,4]triazolo[1,5-a]pyridin-7-yloxy)-2-fluoro-3-methylphenyl)amino)pyrido[3,2-d]pyrimidin-6-yl)-2,2-dimethylpiperazin-1-yl)but-2-yn-1-one] | 7630 | 74 | 103 | ≥ 5000
